In US20250302817A1, “METHODS FOR TREATING PTEN-MUTANT TUMORS” (Icahn School of Medicine at Mount Sinai, priority 2016, published 2025):

What was measured:
[1] = system: gamma-H2AX; assay: Gamma-H2AX measurement of DNA damage by flow cytometry; format: cell-based; conditions: 100 μM leflunomide 48 h or A771726
Experimental: (§1) FIG. 4A is a graph showing positively-stained cells labeled with a gamma-H2AX antibody; cells were analyzed by flow cytometry (Student's t-test, *p<0.05, n=3). […] The mean fluorescence intensity (MFI) was determined using flow cytometry (Student's t-test, *p<0.01, n=3). FIG. 4C is a series of representative photographs showing MEFs treated with 150 μM A771726 for 24 h and labeled with EdU and gamma-H2AX. Left: representative confocal microscopy images. Right: quantified EdU and gamma-H2AX colocalized foci (Student's t-test, *p<0.05, n=3). […] Left: representative confocal microscopy images. Right: quantification of the number of foci per cell (Student's t-test, p>0.05, n=6). FIG. 4E is a graph showing the percentage of cells treated with 150 μM A771726 for times indicated and labeled with antibodies to RPA and gamma-H2AX positively staining for RPA alone or both RPA and gamma-H2AX; cells were analyzed by flow cytometry (Student's t-test, *p<0.05, n=4). […] FIGS. 4G and 4H are graphs quantifying the number of chromosomal breaks and multiradial formations per haploid genome (Student's t-test, *p-values on figure, cells scored/replicate>100). […]
FIG. 10D is a bar graph showing a quantitative depiction of the percent cell area with EdU-staining from images in FIG. 4D, used to normalize foci to cell size (Student's t-test, p>0.05, not significant, n=6). […]

[2] = system: MCCL-357 and MCCL-278 cells; assay: RPA and gamma-H2AX co-staining by flow cytometry; format: cell-based, mouse
Experimental: as §1
FIG. 10D is a bar graph showing a quantitative depiction of the percent cell area with EdU-staining from images in FIG. 4D, used to normalize foci to cell size (Student's t-test, p>0.05, not significant, n=6). […] Cells were treated with A771726 for times indicated and co-stained with antibodies to RPA and gamma-H2AX; cells were analyzed by flow cytometry (n=4). […] FIG. 10H is a bar graph showing a quantitative depiction of the percent of abnormal […] in MCCL-278 and MCCL-357 breast cells treated with 50 or 100 μM A771726 or vehicle (Student's t-test, *p<0.01). […] Pulverized chromosomes could not be quantified due to the very high number of fragments.
The FlowCellect™ Cell Cycle Checkpoint H2A.X DNA Damage Kit (Millipore FCCH12542) was used according to the instructions provided in the kit. […] (Propidium iodide was not used in this setting.) Fluorescence was measured on a Guava® flow cytometer.

[3] = target: T1, CYP2C8 (Homo sapiens, UniProt P10632); conditions: repeated doses of teriflunomide, single dose of 0.25 mg repaglinide; cited from earlier work
T1 construct: host or cells: human subjects, in vivo
T1 sequence (P10632 whole entry): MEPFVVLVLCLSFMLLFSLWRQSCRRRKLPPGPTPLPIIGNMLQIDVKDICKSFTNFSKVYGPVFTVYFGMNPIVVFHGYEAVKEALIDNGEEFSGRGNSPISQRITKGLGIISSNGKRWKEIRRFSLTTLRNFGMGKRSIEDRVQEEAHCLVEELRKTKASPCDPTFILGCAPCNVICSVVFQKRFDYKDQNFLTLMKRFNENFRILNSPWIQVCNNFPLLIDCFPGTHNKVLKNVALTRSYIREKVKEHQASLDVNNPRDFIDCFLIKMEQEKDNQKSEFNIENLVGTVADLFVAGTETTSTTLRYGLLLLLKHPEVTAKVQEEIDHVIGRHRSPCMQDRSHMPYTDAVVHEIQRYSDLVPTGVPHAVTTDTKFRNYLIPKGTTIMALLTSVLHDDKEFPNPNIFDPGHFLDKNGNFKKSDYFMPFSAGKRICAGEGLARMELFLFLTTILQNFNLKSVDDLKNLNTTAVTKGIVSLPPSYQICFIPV

C/C(O)=C(\C#N)C(=O)Nc1ccc(C(F)(F)F)cc1 [teriflunomide, (Z)-2-Cyano-3-hydroxy-but-2-enoic acid-(4trifluoromethylphenyl)-amide]
DNA damage (gamma-H2AX) in PTEN-deficient versus WT cells [1]: augmented DNA damage to a significantly greater degree in PTEN-deficient cells
RPA and gamma-H2AX double-positive cells ([2]; 150 μM A771726, time course): shift toward both RPA and gamma-H2AX-positive cells in Pten^−/− MCCL-357 but not in Pten WT MCCL-278 cells
RPA signal ([2]; 150 μM A771726, regardless of PTEN genotype): increase in RPA signal
gamma-H2AX in relation to RPA staining ([2]; MCCL-357 cells treated with A771726): appeared almost exclusively in RPA-positive MCCL-357 cells
increase in mean repaglinide AUC [3]: 2.4 fold
increase in mean repaglinide Cmax [3]: 1.7 fold
